According to the supplement of paper PMC4862054:
Values joined by “and” are separate entries in the source; they are usually repeats but may differ in a detail not shown here. Equal entries are not always repeated.

Experiments:
CAL-51 [1] = details: 72 h
How it was run: (§1)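 Seeding of breast cancer cell lines (20 µl suspension) was done into 384-well plates pre-loaded with compound at 5 concentrations, 10-fold apart, covering a compound-specific 10,000-fold range. The plates were incubated for 72 h, read for CellTox Green fluorescence (485/520 nm), and then read for CellTiter-Glo luminescence after 10 min at room temperature. Every plate was normalised to 0.1 % DMSO and a positive kill control. Curve fitting gave the EC50, censored at the top concentration.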

CAL-120 = details: 72 h
How it was run: as §1

MDA-MB-436 = details: 72 h
How it was run: as §1

HCC1143 = details: 72 h
How it was run: as §1

DU-4475 [2] = details: 72 h
How it was run: as §1

HDQ-P1 = experiment: normalised viability (% of control), CellTiter-Blue; higher = more viable cells (about 100 = DMSO control); details: incubation time: 72 h
Protocol: (§2)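 DSRT, CellTiter-Blue viability, 72 h incubation. Signal is normalised to DMSO and benzethonium chloride controls. Value is the normalised response at dose 7.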

CAL-51 [3] = experiment: as above; details: incubation time: 72 h
Protocol: as §2

MDA-MB-453 = experiment: as above; details: incubation time: 72 h
Protocol: as §2

CAL-148 = experiment: as above; details: incubation time: 72 h
Protocol: as §2

CAL-85-1 = experiment: as above; details: incubation time: 72 h
Protocol: as §2

DU-4475 [4] = experiment: as above; details: incubation time: 72 h
Protocol: as §2

BT-474 = details: 72 h
How it was run: as §1

BT-549 = details: 72 h
How it was run: as §1

MFM-223 = details: 72 h
How it was run: as §1

Hs578T = details: 72 h
How it was run: as §1

SK-BR-3 = details: 72 h
How it was run: as §1

MCF-10A = details: 72 h
How it was run: as §1

MDA-MB-231 = details: 72 h
How it was run: as §1

MDA-MB-468 = details: 72 h
How it was run: as §1

| SMILES | normalised viability (HDQ-P1) | normalised viability (CAL-51 [3]) | normalised viability (MDA-MB-453) | normalised viability (CAL-148) | normalised viability (CAL-85-1) | normalised viability (DU-4475 [4]) | also measured |
| --- | --- | --- | --- | --- | --- | --- | --- |
| Cc1cccc(-c2nn3c(c2-c2ccnc4ccc(C(N)=O)cc24)CCC3)n1 [Galunisertib] |  |  |  |  |  |  | EC50, CellTiter-Glo (CAL-51 [1]): > 1000 nM |
| Nc1cccc2c1CN(C1CCC(=O)NC1=O)C2=O (stereo unspecified) [Lenalidomide] |  |  |  |  |  |  | EC50, CellTiter-Glo (CAL-120): > 10000 nM |
| O=C1c2c(O)ccc(O)c2C(=O)c2c(NCCNCCO)ccc(NCCNCCO)c21 [Mitoxantrone] |  |  |  |  |  |  | EC50, CellTiter-Glo (MDA-MB-436): 495 nM; EC50, CellTiter-Glo (CAL-51 [1]): 975 nM; EC50, CellTiter-Glo (HCC1143): 314 nM; EC50, CellTiter-Glo (DU-4475 [2]): 988 nM |
| O=C1c2c(O)ccc(O)c2C(=O)c2c(NCCNCCO)ccc(NCCNCCO)c21 [Mitoxantrone] (100 nM) | 74.2% | 31.2% | 71.3% | 25.1% | 63.4% | 13% |  |
| Nc1ccccc1NC(=O)c1ccc(CNc2nccc(-c3cccnc3)n2)cc1 [Mocetinostat] (1000 nM) | 90.1% | 77.8% | 41.6% | 65.5% | 68.7% | 39.2% |  |
| COc1nc(N)nc2c1ncn2[C@@H]1O[C@H](CO)[C@@H](O)[C@@H]1O [Nelarabine] |  |  |  |  |  |  | EC50, CellTiter-Glo (MDA-MB-436): > 10000 nM; EC50, CellTiter-Glo (BT-474): > 10000 nM |
| COc1nc(N)nc2c1ncn2[C@@H]1O[C@H](CO)[C@@H](O)[C@@H]1O [Nelarabine] (1000 nM) | 76.9% and 92.7% | 96.7% and 110% | 101% and 89.3% | 102% and 122% | 101% and 98.4% | 103% and 110% |  |
| Cc1ccc(Nc2nccc(N(C)c3ccc4c(C)n(C)nc4c3)n2)cc1S(N)(=O)=O [Pazopanib] |  |  |  |  |  |  | EC50, CellTiter-Glo (BT-549): 4180 nM; EC50, CellTiter-Glo (MFM-223): 645 nM; EC50, CellTiter-Glo (Hs578T): > 10000 nM |
| Cc1ccc(Nc2nccc(N(C)c3ccc4c(C)n(C)nc4c3)n2)cc1S(N)(=O)=O [Pazopanib] (1000 nM) | 99.8% | 84.2% | 68.8% | 85.6% | 87.6% | 107% |  |
| CS(=O)(=O)N1CCN(Cc2cc3nc(-c4cccc5[nH]ncc45)nc(N4CCOCC4)c3s2)CC1 [Pictilisib] |  |  |  |  |  |  | EC50, CellTiter-Glo (BT-549): 1410 nM; EC50, CellTiter-Glo (SK-BR-3): 253 nM; EC50, CellTiter-Glo (MDA-MB-436): 6050 nM; EC50, CellTiter-Glo (MFM-223): 1580 nM; EC50, CellTiter-Glo (BT-474): 1710 nM; EC50, CellTiter-Glo (MCF-10A): 397 nM; EC50, CellTiter-Glo (CAL-51 [1]): 1230 nM; EC50, CellTiter-Glo (Hs578T): 1890 nM; EC50, CellTiter-Glo (MDA-MB-231): 2960 nM; EC50, CellTiter-Glo (MDA-MB-468): 3040 nM; EC50, CellTiter-Glo (HCC1143): 2600 nM; EC50, CellTiter-Glo (CAL-120): 3150 nM |
| O=C(NC[C@H](O)CO)c1ccncc1Nc1ccc(I)cc1F [Pimasertib] |  |  |  |  |  |  | EC50, CellTiter-Glo (SK-BR-3): > 10000 nM; EC50, CellTiter-Glo (MDA-MB-436): 8470 nM; EC50, CellTiter-Glo (MFM-223): 1950 nM; EC50, CellTiter-Glo (BT-474): 456 nM; EC50, CellTiter-Glo (MCF-10A): 12.9 nM; EC50, CellTiter-Glo (CAL-51 [1]): 46.2 nM; EC50, CellTiter-Glo (Hs578T): 5910 nM; EC50, CellTiter-Glo (MDA-MB-231): 737 nM; EC50, CellTiter-Glo (DU-4475 [2]): 21.8 nM; EC50, CellTiter-Glo (CAL-120): 356 nM |
| O=C(CCBr)N1CCN(C(=O)CCBr)CC1 [Pipobroman] (1000 nM) | 91.2% | 114% | 93.4% | 95.5% | 88.8% | 98.1% |  |
| C[C@]12C=CC(=O)C=C1CC[C@@H]1[C@@H]2[C@@H](O)C[C@@]2(C)[C@H]1CC[C@]2(O)C(=O)CO [Prednisolone] |  |  |  |  |  |  | EC50, CellTiter-Glo (CAL-120): 99.1 nM |
| C[C@]12C=CC(=O)C=C1CC[C@@H]1[C@@H]2[C@@H](O)C[C@@]2(C)[C@H]1CC[C@]2(O)C(=O)CO [Prednisolone] (1000 nM) | 113% | 90.3% | 76.9% | 109% | 101% | 119% |  |
| CC(C)N(CCCNC(=O)Nc1ccc(C(C)(C)C)cc1)C[C@H]1O[C@@H](n2cc(Br)c3c(N)ncnc32)[C@H](O)[C@@H]1O [SGC0946] |  |  |  |  |  |  | EC50, CellTiter-Glo (MDA-MB-468): 2470 nM |
| CNC(=O)c1cc(Oc2ccc(NC(=O)Nc3ccc(Cl)c(C(F)(F)F)c3)cc2)ccn1 [Sorafenib] (100 nM) | 102% and 77.9% | 106% | 90.8% and 101% | 108% | 90.1% and 102% | 94.2% and 117% |  |
| CCN(CC)CCNC(=O)c1c(C)[nH]c(/C=C2\C(=O)Nc3ccc(F)cc32)c1C [Sunitinib] (100 nM) | 91.3% and 100% | 115% and 98.3% | 94% and 94.8% | 94.3% and 116% | 93.3% and 99.1% | 109% and 86.6% |  |
| CC[C@@]1(O)C(=O)OCc2c1cc1n(c2=O)Cc2cc3c(CN(C)C)c(O)ccc3nc2-1 [Topotecan] |  |  |  |  |  |  | EC50, CellTiter-Glo (BT-549): 1190 nM; EC50, CellTiter-Glo (SK-BR-3): 574 nM; EC50, CellTiter-Glo (MDA-MB-436): 378 nM; EC50, CellTiter-Glo (BT-474): 9160 nM; EC50, CellTiter-Glo (MCF-10A): 5600 nM; EC50, CellTiter-Glo (CAL-51 [1]): 785 nM; EC50, CellTiter-Glo (Hs578T): 5130 nM; EC50, CellTiter-Glo (MDA-MB-231): 7050 nM; EC50, CellTiter-Glo (MDA-MB-468): 141 nM; EC50, CellTiter-Glo (HCC1143): 768 nM; EC50, CellTiter-Glo (DU-4475 [2]): 496 nM; EC50, CellTiter-Glo (CAL-120): 4820 nM |
| CC[C@@]1(O)C(=O)OCc2c1cc1n(c2=O)Cc2cc3c(CN(C)C)c(O)ccc3nc2-1 [Topotecan] (100 nM) | 102% | 73.3% | 90.4% | 45.5% | 85.7% | 61.2% |  |
